Reference: paper PMC6677754, “In silico design and optimization of selective membranolytic anticancer peptides” (Scientific Reports, 2019)
Peptide text beside a SMILES is read from it.

Columns and labels:
human erythrocytes = assay: Hemolysis assay; format: cell-based; settings: for Eryhtr. HC50 /µM: 1 h
Procedure, shortened: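 Washed human erythrocytes (5% v/v in PBS) were mixed with peptide plated as a 200–6.25 μM series, in triplicate, for 1 h at 37 °C. Released haemoglobin in the supernatant was read at 540 nm, scaled to 0.1% Triton X-100 (100%) and PBS (0%). HC50 came from a 3-parameter log-logistic fit.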

[1] = test system: noncancer HDMEC primary cells (human dermal microvascular endothelial cells); assay: Cell viability assay (MTT); format: cell-based; settings: for EC50: Table S2, noncancer primary cells, MTT, 24 h, mean ± sd, N = 2 independent measurements with six technical replicates each (Figs S6-S8)
Procedure, shortened: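 Viability by MTT: 10^4 cells/well exposed 24 h to 2-fold peptide dilutions from 100 μM in DMEM, then 1 h with 0.5 mg mL−1 MTT; absorbance at 540 nm relative to peptide-free medium as 100% survival. EC50 from a 3-parameter log-logistic fit.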

[2] = Fig. 1d, compared with the EC50 against cancer cell lines, N = 3

Structure (SMILES) | Eryhtr. HC50 /µM (human erythrocytes; red cells of human) [µM] | EC50 [1] [µM] | half-effective hemolytic concentration (HC50) against human erythrocytes (in words) (human erythrocytes; [2]) | Eryhtr. HC50 /µM (human erythrocytes; Table S2, 5% v/v erythrocytes in PBS added 1:1, peptide 200 to 6.25 µM, 37°C, absorbance 540 nm, 0.1% Triton-X-100 = 100%, mean ± sd, N = 2 independent, three technical replicates) [µM] | EC50 value against the noncancer HDMEC primary cell line (in words) [1, 2]
CC[C@H](C)[C@H](NC(=O)[C@H](CCCCN)NC(=O)[C@H](CCCCN)NC(=O)[C@@H](NC(=O)[C@@H](NC(=O)[C@@H](N)Cc1c[nH]cn1)[C@@H](C)CC)[C@@H](C)CC)C(=O)N[C@@H](CCCNC(=N)N)C(=O)N[C@H](C(=O)N[C@@H](Cc1c[nH]c2ccccc12)C(=O)N[C@@H](Cc1ccc(O)cc1)C(=O)N[C@@H](CCCNC(=N)N)C(=O)N[C@@H](CCCCN)C(=O)N[C@@H](C)C(=O)N[C@@H](Cc1c[nH]c2ccccc12)C(=O)N[C@@H](Cc1c[nH]cn1)C(=O)N[C@H](C(=O)N[C@@H](CC(C)C)C(=O)NCC(=O)N[C@@H](CCCCN)C(=O)N[C@H](C(N)=O)C(C)C)C(C)C)[C@@H](C)O [Off2] (H-HIIKKIRTWYRKAWHVLGKV-NH2) | > 200 | 32 ± 3 | – | – | –
CC[C@H](C)[C@H](NC(=O)[C@H](CCCNC(=N)N)NC(=O)[C@H](Cc1c[nH]c2ccccc12)NC(=O)[C@@H](NC(=O)[C@H](CCCCN)NC(=O)[C@H](CCCCN)NC(=O)[C@@H](NC(=O)[C@@H](NC(=O)[C@@H](NC(=O)[C@H](CCCCN)NC(=O)[C@H](Cc1ccccc1)NC(=O)[C@H](CCCCN)NC(=O)[C@H](CCCCN)NC(=O)[C@H](Cc1ccccc1)NC(=O)[C@@H](NC(=O)[C@@H](N)CCCCN)[C@@H](C)CC)[C@@H](C)O)[C@@H](C)CC)[C@@H](C)CC)C(C)C)C(=O)N[C@@H](Cc1ccccc1)C(=O)NCC(=O)N[C@@H](CCCNC(=N)N)C(=O)N[C@@H](Cc1ccccc1)C(N)=O [AmphiArc2] (H-KIFKKFKTIIKKVWRIFGRF-NH2) | – | 3.3 ± 0.2 | same low-micromolar range | 16 ± 2 | same low-micromolar range
